Data reported in paper PMC3735939, “The low levels of eicosapentaenoic acid in rat brain phospholipids are maintained via multiple redundant mechanisms” (Journal of Lipid Research, 2013).
Several values for one entry are separate records, joined by “and”; a condition that tells them apart may be missing. Identical values can stand only once.

Legend:
[1] = cited from earlier work
[2] = system: mitochondrial FA β-oxidation; assay: Radioactivity in brain aqueous fraction (marker of β-oxidation) after 5 min intravenous 14C-tracer infusion; assay type: in vivo, rat; details: vehicle injection; 5 min iv infusion of tracer
Method: (§1) Twenty-four hours postsurgery, a second catheter (iv catheter 24 gauge/0.75 inch, Angiocath™; Becton Dickinson) was implanted into the tail vein where rats received either vehicle or 10 mg/kg of MEP. Ten minutes post injection of vehicle or MEP, the tail vein catheter was connected to a syringe containing radiolabeled ^14C-palmitate (n = 8), ^14C-DHA (n = 6), or ^14C-EPA (n = 7) attached to a computer-controlled variable speed pump (PHD 22/2000; Harvard Apparatus, Holliston, MA). […] Each rat received a dose of 76 μCi ^14C-palmitate, 76 μCi ^14C-DHA, or 78 μCi ^14C-EPA. […] The radiotracer infusions continued until rats were euthanized. The brain was excised and cut sagittally. Both hemispheres were stored at −80°C for radioactive and biochemical analyses. Plasma was isolated from whole blood via microcentrifugation at 6,200 rpm (2,000 g) for 5 min and stored at −80°C. Total lipids from one brain hemisphere and from plasma were extracted by the method of Folch, Lees, and Sloane Stanley ([39]). Isolation of various neutral lipid and phospholipid classes from the total lipid extract was previously described by Chen, Liu, and Bazinet ([6]).

[3] = Identification of radiolabeled FAs in brain phospholipids by HPLC and LSC after 14C-EPA infusion; assay type: in vivo, rat; details: for percent of total radiolabeled FAs: brain total phospholipids;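 for radiolabeled FA composition: percent of radiolabeled FAs within each phospholipid class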
Method: as §1, with “([6]). FA methyl esters and radioactive acyl-CoA analysis were previously described by Chen, Liu, and Bazinet ([6]).” for “([6]).”

[4] = In vivo kinetics of FA incorporation and turnover in brain phospholipids (intravenous radiotracer infusion, kinetic model); set-up: species or system rat
Method: Twenty-four hours postsurgery, a second catheter (iv catheter 24 gauge/0.75 inch, Angiocath™; Becton Dickinson) was implanted into the tail vein where rats received either vehicle or 10 mg/kg of MEP. […] The radiotracers were infused for 5 min via the tail vein catheter at a rate of 0.223(1 + e^−19.2t) ml/min (t is infusion time in minutes) ([37]) which achieves a steady-state plasma radioactivity within 1 min ([18], [38]). […] During the 5 min infusion, blood samples were collected from the jugular vein at approximately 0, 0.25, 0.5, 0.75, 1.5, 3, 4, and 5 min while the unanesthetized rat was mobile in the infusion box with food and water. […] After 5 min, the rats were rapidly euthanized by head-focused high-energy microwave irradiation (13.5 kW for 1.6 s; Cober Electronics Inc., Stratford, CT). The radiotracer infusions continued until rats were euthanized. The brain was excised and cut sagittally. Both hemispheres were stored at −80°C for radioactive and biochemical analyses. Plasma was isolated from whole blood via microcentrifugation at 6,200 rpm (2,000 g) for 5 min and stored at −80°C.
The model for in vivo kinetics of brain FAs in rats has been previously described ([17], [18], [21], [23], [25], [37], [41]).
Because the infusion is 5 min, contributions of FA from de novo synthesis and esterified plasma FA are negligible ([18], [20], [23], [41]); thus only contributions from plasma unesterified FAs and acyl-CoA pools were considered in the calculation of λpalmitate, DHA, or EPA .

[5] = Radioactivity in brain lipid fractions after 5 min intravenous 14C-tracer infusion (TLC, LSC); assay type: in vivo, rat; details: not adjusted for percent composition of 14C-EPA
Method: as §1, with “([6]). FA methyl esters and radioactive acyl-CoA analysis were previously described by Chen, Liu, and Bazinet ([6]).” for “([6]).”

Q: With `CC/C=C\C/C=C\C/C=C\C/C=C\C/C=C\CCCC(=O)O` [EPA, eicosapentaenoic acid] as the compound, how does the “Jout net rate of loss from brain phospholipids” value [1] read?
A: Its value is 16 nmol/g/day.

Q: And the “loss t1/2 from brain phospholipids” value [1]?
A: The value was 120 h.

Q: And the “rate of loss from brain phospholipids” value [1]?
A: Its value is 14 % per day.

Q: What about the “radioactivity of brain aqueous fraction” value [2] of the same compound?
A: The value was 21 nCi/g brain.

Q: What about the “radiolabeled FA composition” value ([3]; ChoGpl, MEP-treated rats) of the same compound?
A: The value was 66%.

Q: What about the “radiolabeled FA composition” value ([3]; ChoGpl, vehicle-treated rats) of the same compound?
A: Its value is 65%.

Q: What about the “radiolabeled FA composition” value ([3]; EtnGpl, MEP-treated rats) of the same compound?
A: Its value is 25%.

Q: And the “radiolabeled FA composition” value ([3]; EtnGpl, vehicle-treated rats)?
A: Its value is 24%.

Q: What about the “radiolabeled FA composition” value ([3]; PtdIns, MEP-treated rats) of the same compound?
A: Its value is 65%.

Q: And the “radiolabeled FA composition” value ([3]; PtdIns, vehicle-treated rats)?
A: The value was 66%.

Q: And the “radiolabeled FA composition” value ([3]; PtdSer, MEP-treated rats)?
A: Its value is 54%.

Q: And the “radiolabeled FA composition” value ([3]; PtdSer, vehicle-treated rats)?
A: Its value is 44%.

Q: And the “percent of total radiolabeled FAs” value ([3]; MEP-treated rats)?
A: The value was 56%.

Q: What about the “percent of total radiolabeled FAs” value ([3]; vehicle-treated rats) of the same compound?
A: Its value is 62%.

Q: And the “FFA rate of turnover” value ([4]; ChoGpl, MEP)?
A: Its value is 28 ± 4.5 %/day.

Q: And the “JFA net incorporation rate from brain acyl-CoA” value (shortened to “JFA net incorporation rate”) ([4]; ChoGpl, MEP)?
A: The value was 16 ± 2.3 nmol/g/day.

Q: And the “Jin net incorporation rate from plasma unesterified FA” value (“Jin net incorporation rate” for short) ([4]; ChoGpl, MEP)?
A: The value was 3.7 ± 0.31^! nmol/g/day.

Q: What about the “FFA rate of turnover” value ([4]; ChoGpl, Vehicle) of the same compound?
A: Its value is 46 ± 6.9 %/day.

Q: What about the “JFA net incorporation rate” value ([4]; ChoGpl, Vehicle) of the same compound?
A: The value was 23 ± 3.3 nmol/g/day.

Q: And the “Jin net incorporation rate” value ([4]; ChoGpl, Vehicle)?
A: Its value is 2.8 ± 0.55 nmol/g/day.

Q: What about the “FFA rate of turnover” value ([4]; EtnGpl, MEP) of the same compound?
A: The value was 9.5 ± 3.3 %/day.

Q: What about the “JFA net incorporation rate” value ([4]; EtnGpl, MEP) of the same compound?
A: The value was 5.4 ± 1.4 nmol/g/day.

Q: And the “Jin net incorporation rate” value ([4]; EtnGpl, MEP)?
A: The value was 1.2 ± 0.17 nmol/g/day.

Q: And the “FFA rate of turnover” value ([4]; EtnGpl, Vehicle)?
A: The value was 8.4 ± 0.81 %/day.

Q: And the “JFA net incorporation rate” value ([4]; EtnGpl, Vehicle)?
A: Its value is 6.4 ± 1.3 nmol/g/day.

Q: What about the “Jin net incorporation rate” value ([4]; EtnGpl, Vehicle) of the same compound?
A: Its value is 0.78 ± 0.19 nmol/g/day.

Q: And the λ dilution factor ([4]; MEP)?
A: The λ dilution factor was 0.24 ± 0.022.

Q: And the “FFA rate of turnover” value ([4]; PtdIns, MEP)?
A: The value was 17 ± 6.6 %/day.

Q: What about the “JFA net incorporation rate” value ([4]; PtdIns, MEP) of the same compound?
A: The value was 3.0 ± 1.4 nmol/g/day.

Q: What about the “Jin net incorporation rate” value ([4]; PtdIns, MEP) of the same compound?
A: The value was 0.73 ± 0.41 nmol/g/day.

Q: And the “FFA rate of turnover” value ([4]; PtdIns, Vehicle)?
A: The value was 24 ± 1.7 %/day.

Q: And the “JFA net incorporation rate” value ([4]; PtdIns, Vehicle)?
A: The value was 4.5 ± 0.2 nmol/g/day.

Q: And the “Jin net incorporation rate” value ([4]; PtdIns, Vehicle)?
A: The value was 0.52 ± 0.087 nmol/g/day.

Q: What about the “FFA rate of turnover” value ([4]; PtdSer, MEP) of the same compound?
A: Its value is 3.1 ± 0.43 %/day.

Q: And the “JFA net incorporation rate” value ([4]; PtdSer, MEP)?
A: Its value is 1.2 ± 0.13 nmol/g/day.

Q: And the “Jin net incorporation rate” value ([4]; PtdSer, MEP)?
A: The value was 0.29 ± 0.057 nmol/g/day.

Q: And the “FFA rate of turnover” value ([4]; PtdSer, Vehicle)?
A: Its value is 3.1 ± 0.56 %/day.

Q: And the “JFA net incorporation rate” value ([4]; PtdSer, Vehicle)?
A: The value was 1.4 ± 0.36 nmol/g/day.

Q: And the “Jin net incorporation rate” value ([4]; PtdSer, Vehicle)?
A: The value was 0.17 ± 0.055 nmol/g/day.

Q: And the “FFA rate of turnover” value ([4]; Total PL, MEP)?
A: Its value is 17 ± 2.3 %/day.

Q: And the “JFA net incorporation rate” value ([4]; Total PL, MEP)?
A: The value was 31 ± 4.8 nmol/g/day.

Q: And the “Jin net incorporation rate” value ([4]; Total PL, MEP)?
A: Its value is 7.3 ± 0.7^! nmol/g/day.

Q: What about the “FFA rate of turnover” value ([4]; Total PL, Vehicle) of the same compound?
A: Its value is 21 %/day and 21 ± 2.9 %/day.

Q: And the “JFA net incorporation rate” value ([4]; Total PL, Vehicle)?
A: Its value is 47 ± 5.7 nmol/g/day.

Q: And the “Jin net incorporation rate” value ([4]; Total PL, Vehicle)?
A: Its value is 5.7 nmol/g/day and 5.7 ± 1.1 nmol/g/day.

Q: What about the “Jin as percent of the Jout” value ([4]; rat, in vivo) of the same compound?
A: Its value is 36%.

Q: And the “recycling into brain phospholipids, fold lower than DHA” value ([4]; rat, in vivo)?
A: Its value is 154 fold.

Q: What about the λ dilution factor ([4]; vehicle) of the same compound?
A: Its λ dilution factor is 0.12 ± 0.014 and 0.12 ± 0.01.

Q: What about the “total radioactivity in brain total phospholipids” value ([5]; MEP) of the same compound?
A: Its value is 22 ± 0.6 nCi/g brain.

Q: What about the “total radioactivity in brain total phospholipids” value ([5]; vehicle) of the same compound?
A: The value was 17 ± 0.9 nCi/g brain.
